According to patent US8673906B2, “Chromenone derivatives” (AstraZeneca AB, priority 2010, dated 2014):

Target: PI3Kβ (Homo sapiens (Human), UniProt P42338)
Assay: In vitro enzyme inhibition assay (Kinase Glo based enzyme activity assay)
Assay type: biochemical
Conditions: Test (a), human recombinant enzyme; read-out: PI3Kβ inhibition, IC50
Procedure: (a) In Vitro Enzyme Inhibition Assay
The inhibition of PI3Kβ, PI3Kα, PI3Kγ and PI3Kδ was evaluated in a Kinase Glo based enzyme activity assay using human recombinant enzymes. The assay measures depletion of ATP after incubation with enzyme, PIP2 and ATP plus compound. ATP at the end of the reaction is detected by addition of Kinase Glo reagent, in this the Ultra Glo™ luciferase (Promega) uses the ATP as a substrate to catalyze the mono-oxygenation of luciferin and the generation of light. A direct relationship exists between the luminescence measured with the Kinase-Glo Plus Reagent and the amount of ATP remaining in a completed kinase reaction and luminescence is inversely related to kinase activity. Twelve different compound concentrations were tested and raw data from the inhibition of PI3 Kb, PI3Kα, PI3Kγ and PI3Kδ was plotted versus inhibitor concentration.
Compounds in 100% DMSO were added to assay plates by acoustic dispensing. PI3Kβ was added in a Tris buffer (50 mM Tris pH7.4, 0.05% CHAPS, 2.1 mM DTT, and 10 mM MgCl2) and allowed to preincubate with compound for 20 minutes prior to addition of substrate solution containing PIP2 and ATP. The enzyme reaction was stopped after 80 minutes by the addition of Kinase Glo detection solution. Plates were left for 30 minutes at room temperature then read on a Pherastar Instrument (Luminescence ATP 384 program) setting gain on max well. The final concentration of DMSO, ATP and PIP2 in the assay were, 1%, 80 μM, and 80 μM respectively.
IC50 values were calculated using a log curve fitting to a non-linear regression package, fitting raw data to inhibitor concentration.

Sequence of PI3Kβ (P42338 whole entry): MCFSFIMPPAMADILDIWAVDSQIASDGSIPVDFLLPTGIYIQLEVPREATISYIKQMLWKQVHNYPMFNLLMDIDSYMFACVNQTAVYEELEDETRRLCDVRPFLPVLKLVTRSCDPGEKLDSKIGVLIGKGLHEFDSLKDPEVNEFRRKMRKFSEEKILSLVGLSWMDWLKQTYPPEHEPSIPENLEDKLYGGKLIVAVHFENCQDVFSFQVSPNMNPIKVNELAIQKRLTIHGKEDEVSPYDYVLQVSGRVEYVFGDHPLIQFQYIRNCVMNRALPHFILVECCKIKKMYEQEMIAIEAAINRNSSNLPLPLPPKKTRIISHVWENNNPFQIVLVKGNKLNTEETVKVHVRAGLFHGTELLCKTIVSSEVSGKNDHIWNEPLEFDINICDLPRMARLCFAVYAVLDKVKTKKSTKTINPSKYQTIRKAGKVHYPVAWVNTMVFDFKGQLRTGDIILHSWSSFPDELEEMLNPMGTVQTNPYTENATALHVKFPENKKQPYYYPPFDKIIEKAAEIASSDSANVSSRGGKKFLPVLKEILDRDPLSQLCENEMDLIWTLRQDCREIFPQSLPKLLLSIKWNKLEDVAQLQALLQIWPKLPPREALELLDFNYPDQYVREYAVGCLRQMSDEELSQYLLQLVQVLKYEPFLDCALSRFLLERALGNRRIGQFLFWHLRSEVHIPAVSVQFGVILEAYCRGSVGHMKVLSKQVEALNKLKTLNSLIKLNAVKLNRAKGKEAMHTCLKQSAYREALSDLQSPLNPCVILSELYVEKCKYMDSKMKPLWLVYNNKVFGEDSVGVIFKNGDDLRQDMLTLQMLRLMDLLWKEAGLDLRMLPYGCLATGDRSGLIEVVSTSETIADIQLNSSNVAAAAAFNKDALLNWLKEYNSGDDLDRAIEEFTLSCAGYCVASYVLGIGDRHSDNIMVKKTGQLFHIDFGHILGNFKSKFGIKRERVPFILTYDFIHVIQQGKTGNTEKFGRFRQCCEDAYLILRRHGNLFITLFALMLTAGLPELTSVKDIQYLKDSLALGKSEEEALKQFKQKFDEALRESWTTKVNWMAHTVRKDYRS
Sequence of PI3Kβ (P27986 whole entry partner): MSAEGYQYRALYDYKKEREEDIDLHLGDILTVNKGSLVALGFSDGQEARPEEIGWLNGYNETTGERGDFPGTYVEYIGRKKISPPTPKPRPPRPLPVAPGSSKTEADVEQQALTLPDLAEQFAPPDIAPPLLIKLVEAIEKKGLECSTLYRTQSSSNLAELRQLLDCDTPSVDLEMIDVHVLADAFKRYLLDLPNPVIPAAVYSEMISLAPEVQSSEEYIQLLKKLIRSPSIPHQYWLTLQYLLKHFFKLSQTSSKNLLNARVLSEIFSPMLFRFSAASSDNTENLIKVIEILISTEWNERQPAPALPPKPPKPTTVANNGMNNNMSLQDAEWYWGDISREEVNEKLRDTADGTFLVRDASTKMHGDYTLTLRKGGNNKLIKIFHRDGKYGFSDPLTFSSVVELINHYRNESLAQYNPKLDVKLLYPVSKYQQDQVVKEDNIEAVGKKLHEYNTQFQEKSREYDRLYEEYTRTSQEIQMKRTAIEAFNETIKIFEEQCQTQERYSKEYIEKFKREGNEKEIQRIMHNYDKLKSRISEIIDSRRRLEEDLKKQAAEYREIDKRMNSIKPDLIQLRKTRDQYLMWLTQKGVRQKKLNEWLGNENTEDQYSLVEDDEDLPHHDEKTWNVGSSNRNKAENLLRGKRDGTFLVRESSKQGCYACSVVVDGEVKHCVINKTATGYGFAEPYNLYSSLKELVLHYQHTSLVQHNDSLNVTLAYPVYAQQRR

| IC50 [nM] | SMILES |
| --- | --- |
| 5 | CC(Nc1cccc(Cl)c1Cl)c1cc(C(=O)N(C)C)cc2c(=O)cc(N3CCOCC3)oc12 (stereo not shown) [Example 3.19, 8-(1-(2,3-dichlorophenylamino)ethyl)-N,N-dimethyl-2-morpholino-4-oxo-4H-chromene-6-carboxamide] |
| 4320 | CC(c1cc(C(=O)N2CCC(O)CC2)cc2c(=O)cc(N3CCOCC3)oc12)N(C)c1cc(F)cc(F)c1 (single isomer, unassigned) [Example 7.01b, 8-(1-((3,5-difluorophenyl)(methyl)amino)ethyl)-6-(4-hydroxypiperidine-1-carbonyl)-2-morpholino-4H-chromen-4-one] |
| 7 | CC(c1cc(C(=O)NCCN(C)C)cc2c(=O)cc(N3CCOCC3)oc12)N(C)c1ccc(F)cc1 (stereo not shown) [Example 3.00, N-(2-(dimethylamino)ethyl)-8-(1-((4-fluorophenyl)(methyl)amino)ethyl)-2-morpholino-4-oxo-4H-chromene-6-carboxamide] |
| 21 | CC(c1cc(C(=O)N(C)C)cc2c(=O)cc(N3CCOCC3)oc12)N(C)c1cc(F)cc(F)c1F (stereo not shown) [Example 3.39, N,N-dimethyl-8-(1-(methyl(2,3,5-trifluorophenyl)amino)ethyl)-2-morpholino-4-oxo-4H-chromene-6-carboxamide] |
| 13 | Cc1cc(C#N)cc(NC(C)c2cc(C(=O)N(C)C)cc3c(=O)cc(N4CCOCC4)oc23)c1 (stereo not shown) [Example 3.23, 8-(1-(3-cyano-5-methylphenylamino)ethyl)-N,N-dimethyl-2-morpholino-4-oxo-4H-chromene-6-carboxamide] |
| 4 | CC(Nc1cc(F)cc(F)c1)c1cc(C(=O)N(C)CCO)cc2c(=O)cc(N3CCOCC3)oc12 (stereo not shown) [Example 4.07, 8-(1-(3,5-difluorophenylamino)ethyl)-N-(2-hydroxyethyl)-N-methyl-2-morpholino-4-oxo-4H-chromene-6-carboxamide] |
| 12 | CC(c1cc(C(=O)N(C)C)cc2c(=O)cc(N3CCOCC3)oc12)N(C)c1cc(F)cc(Cl)c1 (stereo not shown) [Example 3.37, 8-(1-((3-chloro-5-fluorophenyl)(methyl)amino)ethyl)-N,N-dimethyl-2-morpholino-4-oxo-4H-chromene-6-carboxamide] |
| 7 | CC(Nc1ccc(F)cc1)c1cc(C(=O)N(C)C)cc2c(=O)cc(N3CCOCC3)oc12 (stereo not shown) [Example 2.01, 8-(1-(4-fluorophenylamino)ethyl)-N,N-dimethyl-2-morpholino-4-oxo-4H-chromene-6-carboxamide] |
| 5 | CC(c1cc(C(=O)N2CCCC2)cc2c(=O)cc(N3CCOCC3)oc12)N(C)c1cc(F)cc(F)c1 (stereo not shown) [Example 6.0, 8-(1-((3,5-difluorophenyl)(methyl)amino)ethyl)-2-morpholino-6-(pyrrolidine-1-carbonyl)-4H-chromen-4-one] |
| 7 | CC(c1cc(C(=O)N2CCC(O)C2)cc2c(=O)cc(N3CCOCC3)oc12)N(C)c1cc(F)cc(F)c1 (stereo not shown) [Example 5.02, 8-(1-((3,5-difluorophenyl)(methyl)amino)ethyl)-6-(3-hydroxypyrrolidine-1-carbonyl)-2-morpholino-4H-chromen-4-one] |
| 8 | CC(Nc1cc(F)cc(F)c1)c1cc(C(=O)N2CCSCC2)cc2c(=O)cc(N3CCOCC3)oc12 (stereo not shown) [Example 4.05, 8-(1-(3,5-difluorophenylamino)ethyl)-2-morpholino-6-(thiomorpholine-4-carbonyl)-4H-chromen-4-one] |
| 5 | Cc1cc(F)cc(NC(C)c2cc(C(=O)N(C)C)cc3c(=O)cc(N4CCOCC4)oc23)c1 (stereo not shown) [Example 3.16, 8-(1-(3-fluoro-5-methylphenylamino)ethyl)-N,N-dimethyl-2-morpholino-4-oxo-4H-chromene-6-carboxamide] |
| 6 | CC(Nc1ccc(F)c(Cl)c1)c1cc(C(=O)N2CCC(O)CC2)cc2c(=O)cc(N3CCOCC3)oc12 (stereo not shown) [Example 2.03, 8-(1-(3-chloro-4-fluorophenylamino)ethyl)-6-(4-hydroxypiperidine-1-carbonyl)-2-morpholino-4h-chromen-4-one] |
| 6 | COc1c(F)cccc1NC(C)c1cc(C(=O)N(C)C)cc2c(=O)cc(N3CCOCC3)oc12 (stereo not shown) [Example 3.31, 8-(1-(3-fluoro-2-methoxyphenylamino)ethyl)-N,N-dimethyl-2-morpholino-4-oxo-4H-chromene-6-carboxamide] |
| 4 | CC(Nc1cc(F)cc(F)c1)c1cc(C(=O)N2CC(O)C2)cc2c(=O)cc(N3CCOCC3)oc12 (stereo not shown) [Example 4.12, 8-(1-(3,5-difluorophenylamino)ethyl)-6-(3-hydroxyazetidine-1-carbonyl)-2-morpholino-4H-chromen-4-one] |
| 5 | Cc1c(C#N)cccc1NC(C)c1cc(C(=O)N(C)C)cc2c(=O)cc(N3CCOCC3)oc12 (stereo not shown) [Example 3.29, 8-(1-(3-cyano-2-methylphenylamino)ethyl)-N,N-dimethyl-2-morpholino-4-oxo-4H-chromene-6-carboxamide] |
| 9 | CCCNC(=O)c1cc(C(C)Nc2cc(F)cc(F)c2)c2oc(N3CCOCC3)cc(=O)c2c1 (stereo not shown) [Example 4.16, 8-(1-(3,5-difluorophenylamino)ethyl)-2-morpholino-4-oxo-N-propyl-4H-chromene-6-carboxamide] |
| 4 | COC1CCN(C(=O)c2cc(C(C)Nc3cc(F)cc(F)c3)c3oc(N4CCOCC4)cc(=O)c3c2)CC1 (stereo not shown) [Example 4.26, 8-(1-(3,5-difluorophenylamino)ethyl)-6-(4-methoxypiperidine-1-carbonyl)-2-morpholino-4H-chromen-4-one] |
| 2 | CC(Nc1ccccc1)c1cc(C(=O)NCCN(C)C)cc2c(=O)cc(N3CCOCC3)oc12 (stereo not shown) [Example 1.02, N-(2-(dimethylamino)ethyl)-2-morpholino-4-oxo-8-(1-(phenylamino)ethyl)-4H-chromene-6-carboxamide] |
| 2 | CCN(C)C(=O)c1cc(C(C)Nc2cc(F)cc(F)c2)c2oc(N3CCOCC3)cc(=O)c2c1 (stereo not shown) [Example 4.11, 8-(1-(3,5-difluorophenylamino)ethyl)-N-ethyl-N-methyl-2-morpholino-4-oxo-4H-chromene-6-carboxamide] |
| 9 | CC(c1cc(C(=O)N2CCC(O)CC2)cc2c(=O)cc(N3CCO[C@H](C)C3)oc12)N(C)c1cc(F)cc(F)c1 (stereo partly drawn) [Example 10.03, 8-(1-((3,5-difluorophenyl)(methyl)amino)ethyl)-6-(4-hydroxypiperidine-1-carbonyl)-2-((R)-2-methylmorpholino)-4H-chromen-4-one] |

| SMILES | IC50 [nM] |
| --- | --- |
| CC(Nc1cc(F)cc(F)c1)c1cc(C(=O)N(C)C)cc2c(=O)cc(N3CCO[C@H](C)C3)oc12 (single isomer, unassigned) [Example 9.01a] | 17900 |
| CC(Nc1cc(F)cc(F)c1)c1cc(C(=O)N2CCOCC2)cc2c(=O)cc(N3CCOCC3)oc12 (stereo not shown) [Example 2.07, 8-(1-(3,5-difluorophenylamino)ethyl)-6-(morpholine-4-carbonyl)-2-morpholino-4H-chromen-4-one] | 5 |
| CC(Nc1cc(F)cc(F)c1)c1cc(C(=O)N(C)C)cc2c(=O)cc(N3CCO[C@H](C)C3)oc12 (single isomer, unassigned) [Example 9.01b] | 3 |
| CC(Nc1cc(F)cc(F)c1)c1cc(C(=O)N(C)C)cc2c(=O)cc(N3CCO[C@@H](C)C3)oc12 (stereo partly drawn) [Example 9.02, 8-(1-(3,5-difluorophenylamino)ethyl)-N,N-dimethyl-2-((S)-2-methylmorpholino)-4-oxo-4H-chromene-6-carboxamide] | 11 |
